Results published in patent US5707821A, “Identification of phospholipase A2 inhibitors in Aβ peptide-mediated neurodegenerative disease” (priority 1995, dated 1998).
Read-outs that look alike come from different tables or passages of the source.

What was measured:
[1] = Compound toxicity to human cortical neurons in absence of Aβ1-40 (alamarBlue, 3 days); type: cell-based; conditions: human, cortical neurons
Procedure: (§1) Cultures of human cortical or hippocampal neurons were prepared using a modification of the procedure described in P. Seubert et al. (1992), Nature 359:325-327. Cortical or hippocampal tissue was dissociated by incubation in a trypsin/EDTA solution (0.05% trypsin +0.53 mM EDTA in HBSS; Gibco) for 20 minutes at 37° C. The trypsin was then inactivated by resuspending the cells in serum-containing medium (MEM/FBS): Modified Eagle's Medium (MEM) containing 1% glucose, 1 mM sodium pyruvate, 1 mM glutamine, and supplemented with 10% fetal bovine serum (Gibco). Cells were then pelleted by centrifugation and resuspended in a chemically-defined medium (MEM/B27): MEM containing B27 supplement (Gibco) in place of FBS. Polyethyleneimine (PEI)-coated 6.4-mm (96-well) dishes were rinsed once with MEM/FBS, and then seeded at 0.75-1.25×10^5 cells per well in 0.1 ml MEM/B27. Cultures were maintained in a H2 O-saturated incubator with an atmosphere of 95% air/5% CO2 at 37° C. The culture medium was exchanged twice weekly.
(§2) The alamarBlue™ assay incorporated a proprietary fluorometric/colorimetric metabolic indicator (Alamar Biosciences, Inc.). Viable cells convert alamarBlue™ from an oxidized (non-fluorescent, blue) form to a reduced (fluorescent, red) form. Assays were performed by replacing the culture media with a 10% alamarBlue™ solution in DMEM (rat cortical cultures) or MEM (human cortical cultures). Reduction of alamarBlue™ was determined spectrofluorometrically using a Millipore Cytofluor 2350 Scanner (excitation, […]; emission, 590 nm) and CytoCalc™ software (Millipore Corporation).
(§3) Human cortical neurons were treated with 50 μM Aβ1-40 and various inhibitors of PLA2 or PLC. Compounds were added at the time of Aβ1-40 treatment at concentrations 390 nM to 100 μM. Compounds were also added to neuronal cultures in the absence of Aβ1-40. Neuronal survival was determined after 3 days of treatment by alamarBlue®. IC50 is the dose of compound that inhibited Aβ-mediated neurotoxicity by 50%. […] Data represents the mean ± SD (n=3). ND, not detected at the concentration range used.

human cortical neurons [2] = assay: as above; type: cell-based
Procedure: as §1, §2, §3

human cortical neurons [3] = assay: Aβ neurotoxicity / survival of human cortical neurons (alamarBlue), compound added at time of Aβ1-40; type: cell-based
Procedure: as §1
(§4) Amyloid-β (Aβ) stock solutions were prepared as 1 mM stocks in sterile ddH2 O immediately prior to addition to cultures. Rat cortical neurons were exposed to Aβ by removing the culture medium and replacing it with DMEM/N2 or DMEM/B27 containing Aβ1-40. Human cortical neurons were exposed to Aβ by removing the culture medium and replacing it with MEM, MEM/N2, or MEM/B27 containing Aβ1-40. Cultures were maintained for 2-4 days before neuronal survival was quantified using alamarBlue™.
as §2
The effect of the two benzenesulfonamide inhibitors of PLA2 in Example 2 were examined to determine the dose-dependence of their effect on neuronal survival in human cortical neuron cultures exposed to 0 μM, 25μM, or 50 μM of Aβ1-40 and varying doses of the benzenesulfonamide.
as §3

[4] = tested on: TNF-α release by cultured human cortical microglia; assay: TNF-α release (ELISA) from Aβ1-40-stimulated human microglia; type: cell-based; conditions: 50 μM Aβ1-40, 1 day; compound 0, 5, 10, 20 μM; FIG. 2
Procedure: (§5) Cultures of human cortical or hippocampal astrocytes and microglia were prepared using a modification of the procedure described for cortical neurons. Cortical tissue from fetuses of 16 to 20 weeks of gestation was washed 3 times in Ca^2+ /Mg^2+ free Hanks balanced salt solution (CMF HBSS) and then dissociated by repeated pipetting. The solution was brought to a final volume of 80 ml CMF HBSS for approximately 10 ml of tissue. DNase (Sigma) was added to a final concentration of 0.05 mg/ml. 20 ml of the solution was passed through one 100 μm nylon cell strained (Falcon). The cells were then centrifuged for 5 minutes at 200×G in an IEC Clinical Centrifuge and resuspended in a trypsin/EDTA solution (0.05% trypsin+0.53 mM EDTA in HBSS; Gibco) and incubated for 20 minutes at 37°C. (10 ml of trypsin was added per 2-3 ml of tissue). The trypsin was then inactivated by adding (MEM/FBS): Modified Eagle's Medium (MEM) containing 1% glucose, 1 mM sodium pyruvate, 1 mM glutamine, and supplemented with 10% fetal bovine serum (JRH). After adding a final concentration of 0.05 mg/ml DNase the cells were resuspended and then pelleted by centrifugation and resuspended in MEM/FBS. 1.6×10^8 cells were seeded in a T-150 tissue culture flask coated with polyethyleneimine (PEI). (10% PEI (Sigma) was diluted 1:10 in H2 O, filtered through a […] unit and then diluted into 150 mM sodium borate pH 8.5 at 1:100. The flasks were coated overnight at room temperature, washed two times in PBS and coated with 20 ml/flask of MEM/FBS at 37° C. for at least one hour prior to plating cells.) Cultures were maintained in a H2 O-saturated incubator with an atmosphere of 95% air/5% CO2 at 37° C. The culture medium was changed one and four days after plating and the cultures were then left undisturbed for at least one week. After approximately two weeks in vitro, the flasks were gently shaken and floating microglia were collected and centrifuged for 5 minutes at 200×G in an IEC Clinical Centrifuge. The microglia were reseeded in 96 well tissue culture plates at a density of 5,000-40,000 cells/well in 125 μl in MEM/FBS. Astrocyte cultures were prepared by multiple passaging of the established mixed brain cell cultures. Each T-150 was incubated for 3-4 minutes at 37°C. with a trypsin/EDTA solution (see above). The trypsin was then inactivated by adding MEM/FBS. The cells were triturated and then pelleted by centrifugation and resuspended in MEM/FBS. The cells from one T-150 were seeded at a 1:30 to 1:5 dilution in T-150's not coated. Just prior to confluency the cells were repassaged by trypsinization as described above. This process was repeated until the cultures were >98% pure astrocytes.
(§6) Cultured microglial cells were treated with 50 μM of Aβ1-40 or vehicle only (Control). The levels of IL-1β, IL-6, and TNF-α released into the culture medium were determined by ELISA assay (R&D Systems) according to manufacturer's instructions.
(§7) The effect of two benzenesulfonamide inhibitors of PLA2 (European Patent Application 468 054) were examined on the activation of microglial cells by Aβ1-40 as in Example 1.
(§8) The effects of the benzenesulfonamide PLA2 inhibitor AN20606 and the selective cytosolic PLA2 inhibitor arachidonyl trifluoromethyl ketone (AN20579) were examined in cultured human cortical microglia for their selectivity for inhibiting microglia activation mediated by amyloid-βpeptide and lipopolysaccharides (LPS). LPS are a major constituent of the cell wall of gama-negative bacteria and are extensively used for generating inflammatory responses in cultured cells and in vivo.

[5] = tested on: IL-1β release by cultured human cortical microglia; assay: IL-1β release (ELISA) from Aβ1-40-stimulated human microglia; type: cell-based; conditions: 50 μM Aβ1-40, 1 day; compound 0, 5, 10, 20 μM; FIG. 2
Procedure: as §5, §6, §7, §8

human cortical neurons [6] = assay: Aβ neurotoxicity in human cortical neurons (alamarBlue), 2 h pretreatment with inhibitor; type: cell-based; conditions: 50 μM Aβ1-40, compound 390 nM to 100 μM, 2 h pretreatment and re-added with Aβ, 3 days, n=3; for Emax: 72 h, read-out: Max Inh
Procedure: as §1, §4, §2
The effect of pretreating human cortical neuron cultures with the benzenesulfonamide PLA2 inhibitors and arachidonyl trifluoromethyl ketone prior to exposure to a neurotoxic concentration of Aβ1-40 was determined.
(§9) Human cortical neurons were treated with 50 μM Aβ1-40 and various inhibitors of PLA2. Compounds were added 2 hours prior to Aβ1-40 treatment at concentrations of 390 nM to 100 μM, and were then re-added at the time of Aβ1-40 treatment. Compounds were also added in an identical manner to neuronal cultures in the absence of Aβ1-40. Neuronal survival was determined after 3 days of treatment by alamarBlue®. IC50 is the dose of compound that inhibited Aβ-mediated neurotoxicity by 50%. […] Data represents the mean ± SD (n=3). ND, not detected at the concentration range used.

human cortical neurons [7] = assay: Compound toxicity to human cortical neurons in absence of Aβ1-40, added as in pretreatment protocol; type: cell-based; conditions: no Aβ1-40, 3 days
Procedure: as §1, §2, §9

Ca^+2 -independent PLA2 = conditions: Ackermann et al. (1995); cited from earlier work
cPLA2 = conditions: Street et al. (1993); cited from earlier work
[8] = 50 μM Aβ1-40, compound 390 nM to 100 μM added at time of Aβ, 3 days, n=3

COc1ccc2c(c1)CC[C@@H]1[C@@H]2CC[C@]2(C)[C@@H](NCCCCCCN3C(=O)CCC3=O)CC[C@@H]12 [U73343]
CC50 at 72 h ([1]; no Aβ1-40, 3 days, 390 nM to 100 μM, n=3, ND = not detected at the concentration range used, read-out: TD50 (concentration giving 50% loss of neuronal survival)): 8 µM | TD10 (concentration giving 10% loss of neuronal survival) (human cortical neurons [2]; no Aβ1-40, 3 days, 390 nM to 100 μM, n=3): 6 µM | Max Inh (human cortical neurons [3]; [8]): 10%

CN(C(=O)/C=C/c1ccc(C#N)cc1)c1ccc(S(=O)(=O)NC2CCCCCC2)cc1 [AN20628]
amount of TNF-α released into the medium (in words) [4]: marked and dose-dependent decrease | TD10 (concentration giving 10% loss of neuronal survival) (human cortical neurons [2]; human, 4320 min): 73 µM | amount of IL-1β released into the medium (in words) [5]: marked and dose-dependent decrease | neuronal survival in the presence of pathogenic Aβ peptide (in words) (human cortical neurons [3]; 0, 25 or 50 μM Aβ1-40, varying doses, FIG. 3, FIG. 4): dose-dependent increase in neuronal survival | Max Inh (human cortical neurons [3]; [8]): 82% | IC50 (human cortical neurons [3]; Homo sapiens, Cortical neurone, 72 h, 50 μM Aβ1-40, compound 390 nM to 100 μM added at time of Aβ, 3 days, n=3, ND = not detected at the concentration range used, read-out: IC50 (dose that inhibited Aβ-mediated neurotoxicity by 50%)): 8 µM | Emax (human cortical neurons [6]; Homo sapiens, Cortical neurone): 87% | IC50 (human cortical neurons [6]; Homo sapiens, Cortical neurone, ND = not detected at the concentration range used, read-out: IC50 (dose that inhibited Aβ-mediated neurotoxicity by 50%)): 4 µM

Oleoyloxyethyl Phosphocholine
Max Inh (human cortical neurons [6]): 40% | TD10 (concentration giving 10% loss of neuronal survival) (human cortical neurons [7]; n=3): 17 µM | CC50 (human cortical neurons [7]; n=3, ND = not detected at the concentration range used, read-out: TD50 (concentration giving 50% loss of neuronal survival)): 29 µM

CCN(CC)CCCC(C)Nc1c2ccc(Cl)cc2nc2ccc(OC)cc12 (centres unmarked) [Quinacrine]
CC50 at 72 h [1]: 9 µM | TD10 (concentration giving 10% loss of neuronal survival) (human cortical neurons [2]; human, 4320 min): 6 µM | Max Inh (human cortical neurons [3]; [8]): 2%

O=C1O/C(=C/Br)CCC1c1cccc2ccccc12 (centres unmarked) [Bromoenol Lactone, (e)-6-(bromomethylene)tetrahydro-3-(1-naphthalenyl)-2H-pyran-2-one]
Emax (human cortical neurons [6]; Homo sapiens, Cortical neurone): 41% | inhibition of Ca^+2 -independent PLA2 activity (Ca^+2 -independent PLA2): capable of inhibiting | inhibition of cPLA2 (cPLA2): capable of inhibiting
